In patent US4185032A, “Ureylene phenylene anionic naphthalenesulfonic acids” (American Cyanamid Company, priority 1978, dated 1980):
Where a name gives a salt, the structure may show the parent alone.

What was measured:
[1] = biological target: T1, activated human C1 (Homo sapiens, UniProt P09871); assay: Test Code 026 (C1 inhibitor); type: biochemical; conditions: well number in twofold serial dilution assay, higher = more active
T1 construct: fluid-phase human C2 as substrate in presence of C4
Excerpt: (§1) An active inhibitor protects C2 from C1 and C4; (ii) Test Code 035 (C3-C9 inhibitor)--This test determines the ability of the late components of human complement (C3-C9) to lyse EAC 142 in the presence of appropriate dilutions of the test compound. An active inhibitor protects EAC 142 from lysis by human C3-C9; (iii) Test Code 036 (C-Shunt inhibitor)--In this test human erythrocytes rendered fragile are lysed in autologous serum via the shunt pathway activated by cobra venom factor in the presence of appropriate dilutions of the test compound. Inhibition of the shunt pathway results in failure of lysis; (iv) Forssman Vasculitis Test--Here, the well known complement dependent lesion, Forssman vasculitis, is produced in guinea pigs by intradermal injection of rabbit anti-Forssman antiserum. The lesion is measured in terms of diameter, edema and hemorrhage and the extent to which a combined index of these is inhibited by prior intraperitoneal injection of the test compound at 200 mg/kg is then reported, unless otherwise stated; (v) Forssman Shock Test--Lethal shock is produced in guinea pigs by an i.v. injection of anti-Forssman antiserum and the harmonic mean death time of treated guinea pigs is compared with that of simultaneous controls; (vi) Complement Level Reduction Test--In this test, the above dosed guinea pigs, or others, are bled for serum and the complement level is determined in undiluted serum by the capillary tube method of U.S. Pat. No. 3,876,376 and compared to undosed control guinea pigs; and (viii) Cap 50 Test--Here, appropriate amounts of the test compound are added to a pool of guinea pig serum in vitro, after which the undiluted serum capillary tube assay referred to about is run. The concentration of compound inhibiting 50% is reported.

[2] = system: late components of human complement (C3-C9); assay: Test Code 035 (C3-C9 inhibitor), lysis of EAC 142; type: cell-based
Excerpt: as §1

[3] = system: shunt pathway; assay: Test Code 036 (C-Shunt inhibitor), lysis of human erythrocytes via the shunt pathway activated by cobra venom factor; type: cell-based
Excerpt: as §1

[4] = system: whole complement; assay: Complement Level Reduction Test (in vivo, guinea pig; serum whole complement by capillary tube assay)
Excerpt: as §1
With reference to Table I. guinea pigs weighing about 300 g were dosed intravenously (i.v.) or intraperitoneally (i.p.) with 200 mg/kg of the test compound dissolved in saline and adjusted to pH 7-8. […] The serum was tested for whole complement using the capillary tube assay. Percent inhibition was calculated by comparison with simultaneous controls. The results appear in Table I together with results of tests code 026, 035, 036, Cap 50, % inhibition and Forssman shock.

[5] = system: human serum complement; conditions: in vitro and in vivo; reduction in total hemolytic complement activity; cited from earlier work
[6] = system: complement system; conditions: literature, in words; cited from earlier work
[7] = system: hereditary angioneurotic edema; conditions: literature, in words; cited from earlier work
[8] = Table II (Intermediates), twofold serial dilution assay
[9] = Table I, well number in twofold serial dilution assay, higher = more active

T1 sequence (P09871 16-688): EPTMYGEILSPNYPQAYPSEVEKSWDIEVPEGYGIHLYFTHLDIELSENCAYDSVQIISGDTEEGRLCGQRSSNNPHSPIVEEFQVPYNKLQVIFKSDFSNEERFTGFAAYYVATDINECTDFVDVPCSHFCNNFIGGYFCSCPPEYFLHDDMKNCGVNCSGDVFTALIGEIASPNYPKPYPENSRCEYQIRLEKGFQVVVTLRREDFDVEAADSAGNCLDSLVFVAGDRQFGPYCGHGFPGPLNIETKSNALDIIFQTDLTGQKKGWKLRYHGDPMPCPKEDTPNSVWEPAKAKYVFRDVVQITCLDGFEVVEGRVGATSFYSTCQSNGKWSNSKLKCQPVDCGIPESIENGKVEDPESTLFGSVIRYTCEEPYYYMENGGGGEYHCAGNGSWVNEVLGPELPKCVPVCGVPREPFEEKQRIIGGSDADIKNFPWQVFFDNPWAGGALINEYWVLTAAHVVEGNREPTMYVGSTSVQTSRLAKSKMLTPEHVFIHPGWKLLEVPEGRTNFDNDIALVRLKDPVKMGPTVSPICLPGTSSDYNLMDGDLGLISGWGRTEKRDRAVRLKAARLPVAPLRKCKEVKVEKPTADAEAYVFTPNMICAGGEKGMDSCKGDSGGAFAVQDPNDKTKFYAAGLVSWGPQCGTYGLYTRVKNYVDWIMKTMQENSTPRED
T1 sequence (P00736 18-705 partner): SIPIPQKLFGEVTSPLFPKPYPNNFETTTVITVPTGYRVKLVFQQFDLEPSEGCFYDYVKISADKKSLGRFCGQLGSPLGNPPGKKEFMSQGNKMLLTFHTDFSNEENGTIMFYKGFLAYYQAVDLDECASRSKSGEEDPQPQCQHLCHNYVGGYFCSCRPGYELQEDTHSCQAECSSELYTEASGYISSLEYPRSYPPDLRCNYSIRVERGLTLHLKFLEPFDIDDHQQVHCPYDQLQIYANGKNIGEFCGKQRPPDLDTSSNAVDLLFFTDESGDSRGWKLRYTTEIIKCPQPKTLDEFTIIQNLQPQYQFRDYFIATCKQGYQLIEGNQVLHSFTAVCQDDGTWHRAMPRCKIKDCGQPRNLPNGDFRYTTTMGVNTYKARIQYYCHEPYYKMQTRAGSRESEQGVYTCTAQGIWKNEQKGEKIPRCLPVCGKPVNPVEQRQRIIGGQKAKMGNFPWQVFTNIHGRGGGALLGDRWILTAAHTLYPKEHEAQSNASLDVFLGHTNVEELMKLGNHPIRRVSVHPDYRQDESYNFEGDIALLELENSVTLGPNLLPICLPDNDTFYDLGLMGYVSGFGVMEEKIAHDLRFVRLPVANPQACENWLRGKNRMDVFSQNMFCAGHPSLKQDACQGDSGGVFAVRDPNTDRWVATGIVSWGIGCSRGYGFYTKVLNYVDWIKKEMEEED
T1 sequence (P02745 23-245 partner): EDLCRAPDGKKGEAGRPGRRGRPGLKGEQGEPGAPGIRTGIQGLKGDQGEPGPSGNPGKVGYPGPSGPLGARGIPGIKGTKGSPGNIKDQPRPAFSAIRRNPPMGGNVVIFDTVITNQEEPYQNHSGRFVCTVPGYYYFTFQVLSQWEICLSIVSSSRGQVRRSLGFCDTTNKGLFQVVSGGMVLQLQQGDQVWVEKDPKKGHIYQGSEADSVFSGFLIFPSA
T1 sequence (P02746 28-253 partner): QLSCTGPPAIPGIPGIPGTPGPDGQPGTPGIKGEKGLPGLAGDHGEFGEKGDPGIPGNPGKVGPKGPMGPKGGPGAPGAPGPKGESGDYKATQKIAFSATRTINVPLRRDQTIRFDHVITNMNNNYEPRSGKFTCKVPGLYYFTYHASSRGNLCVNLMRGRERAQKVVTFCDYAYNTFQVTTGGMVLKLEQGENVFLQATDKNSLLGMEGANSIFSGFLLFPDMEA
T1 sequence (P02747 29-245 partner): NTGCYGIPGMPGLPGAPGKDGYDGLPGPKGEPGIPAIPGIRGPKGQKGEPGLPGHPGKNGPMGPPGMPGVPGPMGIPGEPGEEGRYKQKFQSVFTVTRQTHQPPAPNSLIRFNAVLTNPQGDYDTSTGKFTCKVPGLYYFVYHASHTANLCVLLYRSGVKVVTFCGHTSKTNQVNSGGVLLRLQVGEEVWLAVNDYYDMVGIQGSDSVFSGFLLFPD

Nc1ccc(C(=O)Nc2cc(C(=O)O)cc(C(=O)Nc3ccc(S(=O)(=O)[O-])c4cc(S(=O)(=O)[O-])cc(S(=O)(=O)[O-])c34)c2)c(S(=O)(=O)[O-])c1.[Na+].[Na+].[Na+].[Na+] [5-(4-Amino-2-sulfobenzamido)-N-(4,6,8-trisulfo-1-naphthyl)isophthalamic acid, tetrasodium salt]
Cl 026 Wells ([1]; Table II (Intermediates)): +3 wells | C-Late 035 Wells [2, 8]: N | Shunt Inhibition 036 Wells [3, 8]: N

O=C(Nc1ccc(C(=O)Nc2ccc(C(=O)Nc3ccc(S(=O)(=O)[O-])c4cc(S(=O)(=O)[O-])cc(S(=O)(=O)[O-])c34)c(S(=O)(=O)[O-])c2)c(S(=O)(=O)[O-])c1)Nc1ccc(C(=O)Nc2ccc(C(=O)Nc3ccc(S(=O)(=O)[O-])c4cc(S(=O)(=O)[O-])cc(S(=O)(=O)[O-])c34)c(S(=O)(=O)[O-])c2)c(S(=O)(=O)[O-])c1.[Na+].[Na+].[Na+].[Na+].[Na+].[Na+].[Na+].[Na+].[Na+].[Na+] [8,8'-[Ureylenebis[(2-sulfo-4,1-phenylenecarbonyl)imino(2-sulfo-4,1-phenylenecarbonyl)imino]]di-1,3,5-naphthalenetrisulfonic acid, decasodium salt]
Cl 026 Wells ([1]; Table I): +7 wells | % Inhibition, Intraperitoneal, 30 minutes ([4]; Table I, i.p. 200 mg/kg): -31% | % Inhibition, Intraperitoneal, 60 minutes ([4]; Table I, i.p. 200 mg/kg): -36% | % Inhibition, Intraperitoneal, 120 minutes ([4]; Table I, i.p. 200 mg/kg): -58% | % Inhibition, Intravenous, 2 minutes ([4]; Table I, i.v. 200 mg/kg): -38% | % Inhibition, Intravenous, 30 minutes ([4]; Table I, i.v. 200 mg/kg): -47% | % Inhibition, Intravenous, 120 minutes ([4]; Table I, i.v. 200 mg/kg): -22% | C-Late 035 Wells [2, 9]: +1 wells | Shunt Inhibition 036 Wells [3, 9]: +4 wells

pentosan-polysulfoester
anticomplementary activity on human serum [5]: anticomplementary activity on human serum, both in vitro and in vivo

O=C(Nc1ccc(C(=O)Nc2cc(C(=O)O)cc(C(=O)Nc3ccc(S(=O)(=O)O)c4cc(S(=O)(=O)O)cc(S(=O)(=O)O)c34)c2)c(S(=O)(=O)O)c1)Nc1ccc(C(=O)Nc2cc(C(=O)O)cc(C(=O)Nc3ccc(S(=O)(=O)O)c4cc(S(=O)(=O)O)cc(S(=O)(=O)O)c34)c2)c(S(=O)(=O)O)c1 [5,5'-[Ureylenebis[(2-sulfo-4,1-phenylenecarbonyl)-imino]]bis[N-4,6,8-trisulfo-1-naphthylisophthalamic acid], octasodium salt]
Cl 026 Wells ([1]; Table I): +6 wells | C-Late 035 Wells [2, 9]: +2 wells | Shunt Inhibition 036 Wells [3, 9]: +5 wells

heparin
anticomplementary effect / complement inhibition [6]: anticomplementary effect

NCCCCCC(=O)O [epsilon-aminocaproic acid]
success in the treatment of hereditary angioneurotic edema [7]: used with success in the treatment of hereditary angioneurotic edema

NC[C@H]1CC[C@H](C(=O)O)CC1 [tranexamic acid]
success in the treatment of hereditary angioneurotic edema [7]: used with success in the treatment of hereditary angioneurotic edema

Nc1ccc(C(=O)Nc2ccc(C(=O)Nc3ccc(S(=O)(=O)[O-])c4cc(S(=O)(=O)[O-])cc(S(=O)(=O)[O-])c34)c(S(=O)(=O)[O-])c2)c(S(=O)(=O)[O-])c1.[Na+].[Na+].[Na+].[Na+].[Na+] [8-[4-(4-Amino-2-sulfobenzamido)-2-sulfobenzamido]-1,3,5-naphthalenetrisulfonic acid, pentasodium salt]
Cl 026 Wells ([1]; Table II (Intermediates)): +4 wells | % Inhibition, Intraperitoneal, 30 minutes ([4]; Table II (Intermediates), i.p.): -15% | % Inhibition, Intraperitoneal, 60 minutes ([4]; Table II (Intermediates), i.p.): -17% | % Inhibition, Intraperitoneal, 120 minutes ([4]; Table II (Intermediates), i.p.): -23% | % Inhibition, Intravenous, 2 minutes ([4]; Table II (Intermediates), i.v.): -52% | % Inhibition, Intravenous, 30 minutes ([4]; Table II (Intermediates), i.v.): -28% | % Inhibition, Intravenous, 120 minutes ([4]; Table II (Intermediates), i.v.): -10% | C-Late 035 Wells [2, 8]: N | Shunt Inhibition 036 Wells [3, 8]: N

O=C(Nc1cc(C(=O)O)cc(C(=O)Nc2cc(C(=O)O)cc(C(=O)Nc3ccc(S(=O)(=O)O)c4cc(S(=O)(=O)O)cc(S(=O)(=O)O)c34)c2)c1)Nc1cc(C(=O)O)cc(C(=O)Nc2cc(C(=O)O)cc(C(=O)Nc3ccc(S(=O)(=O)O)c4cc(S(=O)(=O)O)cc(S(=O)(=O)O)c34)c2)c1 [5,5'-Ureylenebis[N-[3-carboxy-5-(4,6,8-trisulfo-1-naphthylca] [5,5'-Ureylenebis[N-[3-carboxy-5-(4,6,8-trisulfo-1-naphthaylcarbamoyl)phenyl]isophthalamic acid], decasodium salt]
% Inhibition, Intraperitoneal, 30 minutes ([4]; Table I, i.p. 200 mg/kg): -86% | % Inhibition, Intraperitoneal, 60 minutes ([4]; Table I, i.p. 200 mg/kg): -89% | % Inhibition, Intraperitoneal, 120 minutes ([4]; Table I, i.p. 200 mg/kg): -96% | C-Late 035 Wells [2, 9]: +2 wells

Nc1ccc2cc(S(=O)(=O)O)cc(O)c2c1N=Nc1ccc(NC(=O)Nc2ccc(N=Nc3c(N)ccc4cc(S(=O)(=O)O)cc(O)c34)c(S(=O)(=O)O)c2)cc1S(=O)(=O)O [chloroazol fast pink, 3,3'-ureylenebis[6-(2-amino-8-hydroxy-6-sulfo-1-naphthylazo)benezenesulfonic acid], tetrasodium salt]
anticomplementary effect / complement inhibition [6]: anticomplementary effect

Cc1ccc(C(=O)Nc2ccc(S(=O)(=O)O)c3cc(S(=O)(=O)O)cc(S(=O)(=O)O)c23)cc1NC(=O)c1cccc(NC(=O)Nc2cccc(C(=O)Nc3cc(C(=O)Nc4ccc(S(=O)(=O)O)c5cc(S(=O)(=O)O)cc(S(=O)(=O)O)c45)ccc3C)c2)c1 [Suramin, reference compound]
anticomplementary effect / complement inhibition [6]: moderately active as a complement inhibitor | Cl 026 Wells ([1]; Table I): +4 wells | % Inhibition, Intraperitoneal, 30 minutes ([4]; Table I, i.p. 200 mg/kg): -9% | % Inhibition, Intraperitoneal, 60 minutes ([4]; Table I, i.p. 200 mg/kg): -17% | % Inhibition, Intraperitoneal, 120 minutes ([4]; Table I, i.p. 200 mg/kg): -44%

O=C(Nc1ccc(C(=O)Nc2ccc(C(=O)Nc3cc(S(=O)(=O)O)cc4cc(S(=O)(=O)O)cc(S(=O)(=O)O)c34)c(S(=O)(=O)O)c2)c(S(=O)(=O)O)c1)Nc1ccc(C(=O)Nc2ccc(C(=O)Nc3cc(S(=O)(=O)O)cc4cc(S(=O)(=O)O)cc(S(=O)(=O)O)c34)c(S(=O)(=O)O)c2)c(S(=O)(=O)O)c1 [8,8'-[Ureylenebis[(2-sulfo-4,1-phenylenecarbonyl)-imino](2-sulfo-4,1-phenylenecarbonyl)imino]di-1,3,6-naphthalenetrisulfonic acid, decasodium salt]
Cl 026 Wells ([1]; Table I): +8 wells | % Inhibition, Intraperitoneal, 30 minutes ([4]; Table I, i.p. 200 mg/kg): -68% | % Inhibition, Intraperitoneal, 60 minutes ([4]; Table I, i.p. 200 mg/kg): -24% | % Inhibition, Intraperitoneal, 120 minutes ([4]; Table I, i.p. 200 mg/kg): -14% | C-Late 035 Wells [2, 9]: +1 wells

Nc1ccc(C(=O)Nc2ccc(C(=O)Nc3cc(S(=O)(=O)[O-])cc4cc(S(=O)(=O)[O-])cc(S(=O)(=O)[O-])c34)c(S(=O)(=O)[O-])c2)c(S(=O)(=O)[O-])c1.[Na+].[Na+].[Na+].[Na+].[Na+] [8-[4-(4-Amino-2-sulfobenzamido)-2-sulfobenzamido]-1,3,6-naphthalenetrisulfonic acid pentasodium salt]
Cl 026 Wells ([1]; Table II (Intermediates)): +5 wells | % Inhibition, Intravenous, 2 minutes ([4]; Table II (Intermediates), i.v.): -77% | % Inhibition, Intravenous, 30 minutes ([4]; Table II (Intermediates), i.v.): -43% | % Inhibition, Intravenous, 120 minutes ([4]; Table II (Intermediates), i.v.): -31% | C-Late 035 Wells [2, 8]: N | Shunt Inhibition 036 Wells [3, 8]: N

Nc1cc(C(=O)O)cc(C(=O)Nc2cc(C(=O)O)cc(C(=O)Nc3ccc(S(=O)(=O)[O-])c4cc(S(=O)(=O)[O-])cc(S(=O)(=O)[O-])c34)c2)c1.[Na+].[Na+].[Na+] [5-Amino-3'-carboxy-5'-(4,6,8-trisulfo-1-naphthylcarbamoyl)isophthalanilic acid, trisodium salt]
Cl 026 Wells ([1]; Table II (Intermediates)): +3 wells | C-Late 035 Wells [2, 8]: N | Shunt Inhibition 036 Wells [3, 8]: N
